Assay [1] concerns HepG2 cells. As to the kind of experiment: Intracellular Fe2+ level determination (FeRhoNox-1). Format: cell-based, human. The note with it: HepG2, 24 h, total IC50 concentration. How it is done:
The HepG2 cells were seeded at the density of 2 × 10^5 cells/well onto 12-well plates and cultured with supplemented EMEM at 37 °C under 5% CO2 saturation until 70–80% confluency was reached. […] Subsequently, the cells were detached with trypsin (Corning®), washed with 1 ml DPBS (Capricorn), and then resuspended in the growth medium with 5 µM FeRhoNox™-1 (Goryo Chemical) for 1 h. […] The cells were analysed after incubation with the dye with excitation at 488 nm using a FACSCalibur flow cytometer (Becton Dickinson), and the data were analysed using the FlowJo software (Becton Dickinson). To create a strong, single, positive red fluorescence signal, 3 mM N-acetylcysteine (2 h incubation; Sigma-Aldrich) was used.

Assay [2] deals with ct-DNA. As to the kind of experiment: UV–vis spectra titration with ct-DNA (binding constant Kb). The arrangement: species or system calf. The note with it: for bathochromic effect: UV–vis, addition of 1.25–15 µM ct-DNA to 10 µM compound; for Kb compared to that of mitonafide: mitonafide Kb 2.54 × 10^5. How it is done:
The measurements were performed by adding aliquots of DMSO stock solution of the tested compounds to the buffer solution (pH 7.4, 20 mM, 50 mM NaCl, Tris–HCl buffer, DMSO content of the final solutions = 0.54–0.65%) to the final concentration 10 µM. The tested compounds were incubated for 5 min, with increasing concentrations ranging from 0 to 15 µM of ct-DNA at 37 °C. Then, the UV–vis absorption spectra between 300 and 500 nm were recorded using a GBC Cintra10 UV–VIS spectrometer equipped with a GBC Thermocell Peltier Power Supply with the use of a 1-cm-path-length cell. The binding constant was calculated according to the following equation[70]: A0/A−A0= εG/εH−G−εG+ εG/εH−G−εG × 1/Kb[DNA] where Kb is the binding constant; A0 and a are absorbances of the free tested compound and the apparent one; εG and εH–G are their coefficient, respectively; [DNA] is the concentration of DNA in base pairs. The slope to intercept ratio of the plot between A0/A − A0 and 1/[DNA] yielded the binding constant.

The subject of assay [3] is HepG2 cells. The assay can be described thus: Ca2+ homeostasis determination (Rhod-2 AM). Type of assay: cell-based, human. The note with it: HepG2, 24 h, total IC50 concentration. How it is done: Ca^2+ released was determined by the selective dye Calcium Rhod-2 AM (Thermo Fisher Scientific), which binds specifically to Ca^2+ ions that are related to an increase in dihydrorhod-2 AM concentration, and thus, an enhancement in fluorescence intensity occurred. After treatment, the cells were detached with trypsin (Corning®), washed with 1 ml of DPBS (Capricorn), and then resuspended in EMEM with 2.5 µM Rhod-2 AM. All the samples were incubated for 15 min at 37 °C in the dark, and fluorescence intensity was then analysed at an excitation/emission wavelength of 552/581 nm. The cells were analysed after incubation with the dye with excitation at 488 nm using a FACSCalibur flow cytometer (Becton Dickinson), and the data were analysed using the FlowJo software (Becton Dickinson).

The subject of assay [4] is HepG2 cells. As to the kind of experiment: Lysosome status (acridine orange and Lysotracker Deep Red staining). Type of assay: cell-based, human. To be noted: HepG2, 3 h, total IC50 concentration (5, 4.5, 4, 4.5 µM). How it is done: To analyse the condition of the lysosomes, the cells (2 × 10^5) were stained with the 100 nM LysoTracker™ Deep Red (Thermo Fisher Scientific) fluorescent dye for 30 min under growth conditions. The HepG2 and MRC-5 cells were treated with the tested compounds for 3 h.Final concentration of the compounds for HepG2 cells were as follows: 34–5 µM, 35–4.5 µM, 36–4 µM, 37–4.5 µM, whereas for MRC-5 were: 34–2.1 µM, 35–2 µM, 36–2.3 µM, 37–2.3 µM. Subsequently, the cells were trypsinized, rinsed with 1 ml of DPBS (Capricorn), and then incubated with the dye. Then, cytometric analysis of the stained cells was performed at an excitation/emission wavelength of 647/668 nm.
Lysosomal permeabilization was tested using the acridine orange (AO) dye. After treatment with the compounds, the cell pellets were suspended in 500 µl of DBPS containing AO (Sigma-Aldrich) at the final concentration of 0.5 µg/ml. […] Fluorescence intensity was analysed at an excitation wavelength of 488 nm, and two emission spectra were acquired at 505–550 and 600–650 nm for green and red fluorescence, respectively. The cells were analysed after incubation with the dye, with excitation at 488 nm, using a FACSCalibur flow cytometer (Becton Dickinson), and the data were analysed using the FlowJo software (Becton Dickinson). […]

The subject of assay [5] is HepG2 cells. As to the kind of experiment: Real-time cell migration assay (xCELLigence). Format: cell-based, human. The note with it: one-fourth and half of IC50, 24 h pre-treatment. How it is done:
Transwell cell migration experiments were performed using an xCELLigence RTCA Analyser (Roche, Switzerland) in CIM plates (ACEA Biosciences, San Diego, CA, USA). Each well consisted of an upper and a lower chamber separated by a microporous polyethylene terephthalate membrane containing randomly distributed 8-µm pores. Prior to the migration assay, the HepG2 cells (2 × 10^4) were seeded onto 48-well plates containing the growth medium (EMEM) and incubated until 70–80% confluency at 37 °C in a humidified atmosphere containing 5% CO2. […] Then, 160 µl of complete growth medium (supplemented with 10% FBS) was added to the lower chamber, and 50 µl of serum-free growth medium was added to the upper chambers of the CIM plate. The plates were incubated at 37 °C under 5% CO2 saturation for 1 h prior to insertion into the xCELLigence platform. To initiate a transwell migration experiment, the cells were detached with trypsin (Corning®), resuspended in the serum-free growth medium, and seeded in the upper chamber at a density of 1 × 10^4 cells in 100 µl per well that was previously treated with the compounds. The impedance of the microelectrode array was monitored and converted to CI. Normalisation values were recorded using the RTCA Software 1.2.1. Readouts were performed every 30 min for 72 h.

Consider four substances from publication PMC9888480, “Carboranyl-1,8-naphthalimide intercalators induce lysosomal membrane permeabilization and ferroptosis in cancer cell lines” (Journal of Enzyme Inhibition and Medicinal Chemistry, 2023).

“Also recorded” adds a separate entry of the source.

In the case of “4-[(6-[(1,2-Dicarba-closo-dodecaborane-1-yl)ethylamino]hexyl)amino]-3-nitro-N-[2-(N-pyrrolidinyl)ethyl]-1,8-naphthalimide [Compound 36]”, in assay [1], the “intracellular Fe2+ level (red fluorescence intensity)” value is given as “lowest”. In assay [2], the bathochromic effect came out at 7 nm and the “Kb compared to that of mitonafide” value is “similar”. Moreover, the “Ca2+ accumulation compared to control” value in assay [3] is listed as “slightest effect”.

Consider “4-[(6-[(1,2-Dicarba-closo-dodecaborane-1-yl)ethylamino]hexyl)amino]-N-[2-(dimethylamino)ethyl]-3-nitro-1,8-naphthalimide [Compound 34]”, for which the bathochromic effect in assay [2] worked out at 9 nm. The “AO green/red ratio (LMP)” value in assay [4] is given as “approximately twofold”. The “effect on migration of HepG2 cells (slope of cell index, first 24 h)” value (from here on “effect … (slope of cell index, first 24 h)”) in assay [5] is “highest influence on the migration activity”.

In assay [2], “4-[(6-[(1,7-Dicarba-closo-dodecaborane-1-yl)ethylamino]hexyl)amino]-3-nitro-N-[2-(N-pyrrolidinyl)ethyl]-1,8-naphthalimide [Compound 37]” showed a bathochromic effect of 8 nm. Besides, in assay [5], the “effect … (slope of cell index, first 24 h)” value is “highest influence on the migration activity”.

Take “4-[(6-[(1,7-Dicarba-closo-dodecaborane-1-yl)ethylamino]hexyl)amino]-N-[2-(dimethylamino)ethyl]-3-nitro-1,8-naphthalimide [Compound 35]”: the “intracellular Fe2+ level (red fluorescence intensity)” value in assay [1] is given as “highest ferrous level”. Further, in assay [2], the bathochromic effect turned out to be 10 nm and the “Kb compared to that of mitonafide” value is listed as “approximately 1.5 fold”. The “Ca2+ accumulation compared to control” value in assay [3] is “more than threefold”. In addition, the “AO green/red ratio (LMP)” value in assay [4] is listed as “approximately twofold”. For the same substance, the “effect … (slope of cell index, first 24 h)” value in assay [5] is “highest influence on the migration activity; also recorded: highest impairment”.
